“Also recorded” adds a separate entry of the source.
Experiments:
[1] = physical stability / hygroscopicity of salts and formulations
[2] = Phase 1 single ascending dose study of intranasal 5-MeO-DMT HCl in healthy subjects; format: in vivo; settings: human plasma
Excerpt: (§1) The applicant has funded double-blind, randomised, Phase 1, single ascending dose studies to evaluate the safety, tolerability and pharmacokinetic profile of intranasal 5-MeO-DMT hydrochloride and intranasal 5-MeO-DMT benzoate in healthy subjects. […] It is desirable that a compound for use in treatment has dose-proportional pharmacokinetics, for example, to facilitate dose and dose regimen adjustment in patients. In an embodiment, there is provided a salt of 5-MeO-DMT with dose-proportional pharmacokinetics, optionally for use in the methods disclosed herein. In an embodiment, the salt of 5-MeO-DMT with dose-proportional pharmacokinetics is the benzoate or HBr salt, optionally the benzoate salt. A double-blind, randomised, Phase 1, single ascending dose study to evaluate the safety, tolerability and pharmacokinetic profile of a liquid intranasal 5-MeO-DMT HCl (5-MeO-DMT HCl, HPMC, water for injection (WFI) and a sodium hydroxide solution to adjust pH) pharmaceutical composition/formulation in healthy subjects was performed.

[3] = dissolution rate (UV-fibre optic dissolution apparatus, simulated nasal fluid); format: physicochemical
Experimental: The dissolution rate of SDD was determined using a method comprising the use of a UV-fibre optic-based dissolution apparatus (one such suitable device is the Rainbow® Dynamic Dissolution Monitor by Pion Inc) and simulated nasal fluid. The simulated nasal fluid comprises 7.45 g/L NaCl, 1.29 g/L KCl, 0.32 g/L CaCl2)×2H2O and deionised water.

[4] = thermal decomposition properties of salt forms (TGA); format: physicochemical
Excerpt: The thermal decomposition properties of a range of salt forms of 5-MeO-DMT has been investigated and is summarised in the report below: […]

[5] = format: in vivo, human (healthy subjects)
Excerpt: as §1
A double-blind, randomised, Phase 1, single ascending dose study to evaluate the safety, tolerability and pharmacokinetic profile of intranasal 5-MeO-DMT benzoate in healthy subjects was performed.

[6] = solid state by XRPD and DSC; format: physicochemical; settings: XRPD and/or DSC, after spray drying or lyophilisation
Experimental: Unless otherwise stated herein all X-ray powder diffractograms (XRPD) were generated using an X-ray wavelength of 1.5406 Å; all modulated differential scanning calorimetry (DSC) thermograms were generated using a 2 °C/min heating rate.

With `COc1ccc2[nH]cc(CCN(C)C)c2c1.Cl` [5-MeO-DMT HCl] the “stability profile, in words” value [1] was “issues relating to stability, discoloration and a reduction in desirable pharmacokinetic properties”, the mean concentration profiles ([2]; 5 mg, 8 mg, 10 mg, 11 mg and 14 mg) was “substantially similar” and the dose-proportional pharmacokinetics ([2]; liquid intranasal HCl formulation, 5, 8, 10, 11 and 14 mg) was “does not display dose-proportional pharmacokinetics”.

With `COc1ccc2[nH]cc(CCN(C)C)c2c1.O=C(O)c1ccccc1` [5-MeO-DMT benzoate] the “dissolution rate / profile, in words” value [3] was “almost instantaneous dissolution rate; also recorded: a reduced dissolution rate as compared to the amorphous form of 5-MeO-DMT salts”, the “physical / state stability, in words” value [1] was “storage at 2-8° C., and protection from moisture, prevents recrystallisation and aggregation; also recorded: stable crystalline spray dried dispersion particle with no respirable API fines or significant aggregation” and the “stability profile, in words” value [1] was “good stability profile”. The mass loss [4] was “full mass loss”, the “temperature at which decomposition starts” value [4] was ~220 °C and the “mean Cmax” value ([5]; intranasal, 12 mg dosage, human plasma) was 29 ng/mL. The “mean Tmax” value ([5]; intranasal, human plasma) was 9.5 min and the “solid state of the dispersion produced” value [6] was “amorphous dispersion with no sign of the crystalline benzoate salt”.

With `Br.COc1ccc2[nH]cc(CCN(C)C)c2c1` [5-MeO-DMT hydrobromide] the “physical / state stability, in words” value [1] was “stable amorphous dispersion without the need for any additional drying step post spray drying; also recorded: state-stable when stored at above the temperature range 2-8 °C” and the “temperature at which gross decomposition starts” value [4] was “Melt 149 °C, gross decomp starts 220 °C”.

For `C1=Cc2cccc(OC[C@H]3CNCCO3)c2C1.O=S(=O)(O)c1ccccc1` [Benzenesulfonate], the “temperature at which gross decomposition starts” value [4] was “Melt 76 °C, gross decomp starts 280 °C”.

For `CN(C)CCc1c[nH]c2ccc(O)cc12` [Bufotenin], the “detection of O-demethylated metabolite (Bufotenin)” value ([5]; 6 mg dose level of intranasal 5-MeO-DMT benzoate, after the 16 minutes time point) was “only detected at very low levels”.

For `O=C(O)CCC(=O)C(=O)O` [Ketoglutarate], the “temperature at which gross decomposition starts” value [4] was “Melt 85 °C, gross decomp starts 170 °C”.

In the case of `O=C(O)CC(O)C(=O)O` (centres unmarked) [Malate], the “temperature at which gross decomposition starts” value [4] is reported as “Melt 100 °C, gross decomp starts 250 °C”.

For `O=C(O)C(O)C(O)C(=O)O` (centres unmarked) [Tartrate], the decomposition temperature [4] was “Melt ~140 °C, decomp ~200 °C”.

For Fumarate, the decomposition temperature [4] was “Decomp around 200 °C”.

For Glycolate, the “temperature at which gross decomposition starts” value [4] was “Melt 95 °C, gross decomp starts 170 °C”.

With Oxalate the mass loss [4] was “Melts 176 °C, full mass loss”.

With Phosphate the decomposition temperature [4] was “Decomp around 200 °C”.

With Tosylate the “temperature at which gross decomposition starts” value [4] was “Melt 110 °C, gross decomp starts 280 °C”.
